According to ChEMBL document CHEMBL6109101, “Synthesis and bioactivity of cyclic peptide GG-8-6 analogues as anti-hepatocellular carcinoma agents” (Eur J Med Chem, 2025):
Active and inactive are the calls of the source. The calls are words filed in the database; no cut-off is given here.

What was measured:
[1] = tested on: MHCC97H; assay: Antitumor activity against human MHCC97H cells xenografted in nude mouse assessed as tumor weight at 20 mg/kg, po administered daily for 3 weeks (reference value: 1.667g); type: functional
[2] = tested on: HepG2; assay: Cytotoxicity against human HepG2 cells assessed as inhibition of cell proliferation incubated for 48 hrs by MTT assay; type: functional, cell-based; conditions: HepG2, 48 h
[3] = Toxicity in nude mouse implanted with human MHCC97H cells assessed as body weight at 20 mg/kg, po administered daily for 3 weeks and measured immediately (reference value: 25.05 g); type: organism-based; conditions: in vivo, 504 h
[4] = tested on: MHCC97H; assay: Antitumor activity against human MHCC97H cells xenografted in nude mouse assessed as tumor growth inhibition at 20 mg/kg, po administered daily for 3 weeks relative to control; type: functional; conditions: 504 h, read-out: TGI
[5] = tested on: HCCLM3; assay: Cytotoxicity against human HCCLM3 cells assessed as inhibition of cell proliferation incubated for 48 hrs by MTT assay; type: functional, cell-based; conditions: HCCLM3, 48 h
[6] = tested on: MHCC97H; assay: Cytotoxicity against human MHCC97H cells assessed as inhibition of cell proliferation incubated for 48 hrs by MTT assay; type: functional, cell-based
[7] = tested on: Huh-7; assay: Cytotoxicity against human Huh-7 cells assessed as inhibition of cell proliferation incubated for 48 hrs by MTT assay; type: functional, cell-based; conditions: Huh-7, 48 h
[8] = tested on: MHCC97H; assay: Cytotoxicity against human MHCC97H cells assessed as cell viability up to 40 uM by MTT assay; type: functional, cell-based; conditions: time 12-48 hrs
[9] = tested on: MHCC97H; assay: Antitumor activity against human MHCC97H cells xenografted in nude mouse assessed as increase in apoptotic cells at 15 mg/kg, po administered daily for 3 weeks by TUNEL staining based assay; type: functional, organism-based
[10] = tested on: HCCLM3; assay: Cytotoxicity against human HCCLM3 cells assessed as cell viability up to 40 uM measured at 24 to 48 hrs by MTT assay; type: functional, cell-based; conditions: time 24-48 hrs
[11] = tested on: HCCLM3; assay: Cytotoxicity against human HCCLM3 cells assessed as cell viability up to 40 uM measured at 12 hrs by MTT assay; type: functional, cell-based
[12] = tested on: MHCC97H; assay: Cytotoxicity against human MHCC97H cells assessed as cell viability up to 40 uM measured at 12 hrs by MTT assay; type: functional, cell-based
[13] = tested on: HCCLM3; assay: Cytotoxicity against human HCCLM3 cells assessed as reduction in cell viability at 40 uM measured at 48 hrs by MTT assay; type: functional, cell-based
[14] = tested on: MHCC97H; assay: Cytotoxicity against human MHCC97H cells assessed as reduction in cell viability at 40 uM by MTT assay; type: functional, cell-based; conditions: time 48.0 hrs
[15] = tested on: MHCC97H; assay: Cytotoxicity against human MHCC97H cells assessed as cell viability incubated at 12 to 48 hrs hrs by MTT assay; type: functional, cell-based; conditions: dose <= 40.0 µM, time 12-48 hrs
[16] = tested on: HCCLM3; assay: Cytotoxicity against human HCCLM3 cells assessed as reduction in cell viability up to 40 uM measured at 48 hrs by MTT assay; type: functional, cell-based
[17] = tested on: HCCLM3; assay: Cytotoxicity against human HCCLM3 cells assessed as cell viability up to 40 uM by MTT assay; type: functional, cell-based; conditions: time 12-48 hrs
[18] = tested on: MHCC97H; assay: Cytotoxicity against human MHCC97H cells assessed as reduction in cell viability up to 40 uM measured at 48 hrs by MTT assay; type: functional, cell-based
[19] = tested on: MHCC97H; assay: Cytotoxicity against human MHCC97H cells assessed as reduction in cell viability at 40 uM measured at 48 hrs by MTT assay; type: functional, cell-based
[20] = tested on: HCCLM3; assay: Cytotoxicity against human HCCLM3 cells assessed as reduction in cell viability at 40 uM by MTT assay; type: functional, cell-based; conditions: time 48.0 hrs
[21] = tested on: MHCC97H; assay: Cytotoxicity against human MHCC97H cells assessed as cell viability up to 40 uM measured at 24 to 48 hrs by MTT assay; type: functional, cell-based; conditions: time 24-48 hrs
[22] = tested on: HCCLM3; assay: Cytotoxicity against human HCCLM3 cells assessed as cell viability incubated at 12 to 48 hrs hrs by MTT assay; type: functional, cell-based; conditions: dose <= 40.0 µM, time 12-48 hrs
[23] = tested on: MHCC97H; assay: Antitumor activity against human MHCC97H cells xenografted in nude mouse assessed as increase in apoptotic cells at 5 to 10 mg/kg, po administered daily for 3 weeks by TUNEL staining based assay; type: functional, organism-based; conditions: dose 5-10 mg/kg
[24] = tested on: MHCC97H; assay: Cytotoxicity against human MHCC97H cells assessed as reduction in cell viability at 40 uM measured after 48 hrs by MTT assay; type: functional, cell-based
[25] = tested on: HCCLM3; assay: Cytotoxicity against human HCCLM3 cells assessed as reduction in cell viability at 40 uM measured after 48 hrs by MTT assay; type: functional, cell-based

Row | SMILES | Activity [8] | Activity [10] | Activity [11] | Activity [12] | Activity [13] | Activity [15] | Activity [16] | Activity [17] | Activity [18] | Activity [19] | Activity [21] | Activity [22] | further results
1 | CNC(=O)c1cc(Oc2ccc(NC(=O)Nc3ccc(Cl)c(C(F)(F)F)c3)cc2)ccn1 [SORAFENIB] | – | – | – | – | – | – | – | – | – | – | – | – | Activity [1]: 0.955 g; IC50 [2]: 13.8 µM; Activity [3]: 26.85 g; inhibition in vivo at 20 mg/kg [4]: 42.8%; IC50 [5]: 9.22 µM; IC50 [6]: 15.2 µM; IC50 [7]: 13.8 µM
2 | CC[C@@H](C)[C@H]1NC(=O)[C@@H]2CCCN2C(=O)[C@@H](CC(C)C)NC(=O)[C@H](CO)NC(=O)[C@@H](CC(C)C)NC(=O)[C@H](C(C)C)NC(=O)[C@H](CC(C)C)NC(=O)[C@H](CC(C)C)NC(=O)[C@H](CC(C)C)NC1=O | Time-dependent-effect | Active | Active | Active | Active | Dose-dependent-effect | Active | Time-dependent-effect | Active | Active | Active | Dose-dependent-effect | Activity [9]: Active; Activity [14]: Time-dependent-effect; Activity [20]: Time-dependent-effect
3 | CC[C@@H](C)[C@H]1NC(=O)[C@@H]2CCCN2C(=O)[C@@H](CC(C)C)NC(=O)[C@H](COC(C)(C)C)NC(=O)[C@@H](CC(C)C)NC(=O)[C@H](C(C)C)NC(=O)[C@H](CC(C)C)NC(=O)[C@H](CC(C)C)NC(=O)[C@H](CC(C)C)NC1=O | Time-dependent-effect | Active | Active | Active | Active | Dose-dependent-effect | Active | Time-dependent-effect | Active | Active | Active | Dose-dependent-effect | Activity [23]: Active; Activity [24]: Active; Activity [25]: Active
